{
  "source": "patent US5948793A",
  "about": "“3-pyridyloxymethyl heterocyclic ether compounds useful in controlling neurotransmitter release” (Abbott Laboratories, priority 1995, dated 1999)",
  "note": "Where a name gives a salt, the structure may show the parent alone.",
  "data": [
    {"biological_target": "neuronal nicotinic cholinergic channel receptors", "assay": "[3H]-cytisine displacement binding to neuronal nicotinic cholinergic channel receptors", "assay_type": "rat (crude synaptic membranes from whole rat brain)", "conditions": "Table 2; [3H]-cytisine 1.25 nM, 60 min at 4° C.; dihydrochloride; read-out: Receptor Binding Ki", "procedure": "(§1) B. Protocol For Determination of Nicotinic Cholinergic Channel Receptor Binding Potencies of Ligands\n(§2) Binding of [^3 H]-cytisine ([^3 H]-CYT) to nicotinic receptors was accomplished using crude synaptic membrane preparations from whole rat brain (Pabreza et al., Molecular Pharmaol., 1990, 39:9). Washed membranes were stored at -80° C. prior to use. Frozen aliquots were slowly thawed and resuspended in 20 volumes of buffer (containing: 120 mM NaCl, 5 mM KCl, 2 mM MgCl2, 2 mM CaCl2 and 50 mM Tris-Cl, pH 7.4 @4° C.). After centrifuging at 20,000×g for 15 minutes, the pellets were resuspended in 30 volumes of buffer. Homogenate (containing […]) was added to triplicate tubes containing concentrations of test compound and [^3 H]-CYT (1.25 nM) in a final volume of 500 μL. Samples were incubated for 60 minutes at 4° C., then rapidly filtered through Whatman GF/B filters presoaked in 0.5% polyethylimine using 3×4 mL of ice-cold buffer. The filters are counted in 4 mL of Ecolume® (ICN). […] Alternately, data were expressed as a percentage of the total specific binding.", "units": {"Ki": "nM"}, "values": [
      {"smiles": "Cc1ncccc1OC[C@H]1CCN1", "note": "[Example 41, 2-methyl-3-(2-(R)-azetidinylmethoxy)pyridine dihydrochloride]", "Ki": 9.9}
    ]},
    {"biological_target": "neuronal nicotinic cholinergic channel receptors", "assay": "[3H]-cytisine displacement binding to neuronal nicotinic cholinergic channel receptors", "assay_type": "rat (crude synaptic membranes from whole rat brain)", "conditions": "Table 2; [3H]-cytisine 1.25 nM, 60 min at 4° C.; read-out: Receptor Binding Ki", "procedure": "as §1, §2", "units": {"Ki": "nM"}, "values": [
      {"smiles": "CCC[C@H]1CCN(C)[C@H]1COc1cccnc1", "note": "(relative stereo) [Example 60, 3-((cis-1-methyl-3-propyl-2-pyrrolidinyl)methoxy)pyridine dihydrochloride]", "Ki": 51},
      {"smiles": "CCC[C@H]1CCN[C@H]1COc1cccnc1", "note": "(relative stereo) [Example 61, 3-((cis-3-propyl-2-pyrrolidinyl)methoxy)pyridine dihydrochloride]", "Ki": 1.3},
      {"smiles": "CN1CCC[C@H]1COc1cnccn1", "note": "[Example 3, 2-((1-methyl-2-(S)-pyrrolidinyl)methoxy)pyrazine fumarate]", "Ki": 20},
      {"smiles": "c1cnc(OC[C@@H]2CCN2)cn1", "note": "[Example 7, 2-(2-(S)-azetidinylmethoxy)pyrazine dihydrochloride]", "Ki": 0.44},
      {"smiles": "CN1CCC[C@H]1COc1nccs1", "note": "[Example 11, 2-((1-methyl-2-(S)-pyrrolidinyl)methoxy)thiazole hydrochloride]", "Ki": 110},
      {"smiles": "Clc1cncc(OC[C@@H]2CCCN2)c1", "note": "[Example 15, 5-chloro-3-(2-(S)-pyrrolidinylmethoxy)pyridine dihydrochloride]", "Ki": 0.13},
      {"smiles": "Cc1ncccc1OC[C@@H]1CCN1C", "note": "[Example 30, 2-Methyl-3-((1-methyl-2-(S)-azetidinyl)methoxy)pyridine dihydrochloride]", "Ki": 129},
      {"smiles": "Clc1cncc(OC[C@@H]2CCN2)c1", "note": "[Example 39, 5-chloro-3-(2-(S)-azetidinylmethoxy)pyridine dihydrochloride]", "Ki": 0.04},
      {"smiles": "Cc1ccc(OC[C@@H]2CCN2)cn1", "note": "[Example 40, 6-methyl-3-(2(S)-azetidinylmethoxy)pyridine dihydrochloride]", "Ki": 0.05},
      {"smiles": "CN1CCCC[C@@H]1COc1cccnc1", "note": "[Example 42, 3-((1-methyl-2-(R)-piperidinyl)methoxy)pyridine dihydrochloride]", "Ki": 342},
      {"smiles": "Clc1ncccc1OC[C@@H]1CCCN1", "note": "[Example 43, 2-chloro-3-(2-(S)-pyrrolidinylmethoxy)pyridine dihydrochloride]", "Ki": 18.6},
      {"smiles": "CN1CCC[C@H]1COc1cncc(C(F)(F)F)c1", "note": "[Example 44, 3-(1-methyl-2-(S)-pyrrolidinylmethoxy)-5-trifluoromethylpyridine dihydrochloride]", "Ki": 1.8},
      {"smiles": "Clc1ccc(OC[C@@H]2CCCN2)cn1", "note": "[Example 45, 3-(2-(S)-pyrrolidinylmethoxy)-6-chloropyridine dihydrochloride]", "Ki": 0.075},
      {"smiles": "CO[C@@H]1C[C@@H](COc2cccnc2)N(C)C1", "note": "[Example 47, 34 (trans-4-methoxy-1-methyl-2-(S)-pyrrolidinyl)methoxy)pyridine dihydrochloride]", "Ki": 23},
      {"smiles": "CN1C[C@@H](CO)C[C@H]1COc1cccnc1", "note": "[Example 48, 3-((cis-4-hydroxymethyl-1-methyl-2-(S)-pyrrolidinyl)methoxy)pyridine dihydrochloride]", "Ki": 30},
      {"smiles": "COCC1C[C@@H](COc2cccnc2)N(C)C1", "note": "(stereo partly drawn) [Example 49, 3-((4-methoxymethyl-1-methyl-2-(S)-pyrrolidinyl)methoxy)pyridine dihydrochloride]", "Ki": 66},
      {"smiles": "CN1C[C@H](CC#N)C[C@H]1COc1cccnc1", "note": "[Example 50, 3-((trans-4-cyanomethyl-1-methyl-2-(S)-pyrrolidinyl)methoxy)pyridine dihydrochloride]", "Ki": 5.6},
      {"smiles": "CN1CCC[C@@H]1COc1ccc(Cl)nc1", "note": "[Example 51, 3-((1-methyl-2-(R)-pyrrolidinyl)methoxy-6-chloropyridinedihydrochloride]", "Ki": 4.5},
      {"smiles": "Cc1ncccc1OC[C@@H]1CCCN1C", "note": "[Example 53, 2-methyl-3-(1-methyl-2-(S)-pyrrolidinylmethoxy)pyridine dihydrochloride]", "Ki": 28},
      {"smiles": "CN1CCC[C@@H]1COc1cncc(C(F)(F)F)c1", "note": "[Example 54, 3-((1-methyl-2-(R)-pyrrolidinyl)methoxy)-5-trifluoromethylpyridine hydrochloride]", "Ki": 78},
      {"smiles": "CN1CCC[C@H]1COc1ccc(Cl)nc1", "note": "[Example 55, 6-chloro-3-((1-methyl-2-(S)-pyrrolidinyl)methoxy)pyridine dihydrochloride]", "Ki": 0.63},
      {"smiles": "CN1CCC[C@@H]1COc1cncc(Br)c1", "note": "[Example 56, 5-bromo-3-((1-methyl-2-(R)-pyrrolidinyl)methoxy)pyridine hydrochloride]", "Ki": 9.2},
      {"smiles": "C=CCN1CCC[C@H]1COc1cncc(Br)c1", "note": "[Example 57, 3-((1-allyl-2-(S)-pyrrolidinyl)methoxy)-5-bromopyridine dihydrochloride]", "Ki": 17},
      {"smiles": "Clc1ccc(OC[C@H]2CCCN2)cn1", "note": "[Example 58, 3-(2-(R)-pyrrolidinylmethoxy)-6-chloropridine hydrochloride]", "Ki": 5.3},
      {"smiles": "c1cncc(OC[C@H]2CCN2)c1", "note": "[Example 62, 3-(2-(R)-azetidinylmethoxy)pyridine dihydrochloride]", "Ki": 0.5},
      {"smiles": "CN1CC[C@@H]1COc1cccnc1", "note": "[Example 63, 3-((1-methyl-2-(R)-azetidinyl)methoxy)pyridine dihydrochloride]", "Ki": 1.4},
      {"smiles": "Cc1ccncc1OC[C@@H]1CCN1", "note": "[Example 64, 4methyl-3-(2-(S)-azetidinylmethoxy)pyridine dihydrochloride]", "Ki": 224},
      {"smiles": "Brc1cncc(OC[C@@H]2CCCN2)c1", "note": "[Example 65, 5-bromo-3-(2-(S)-pyrrolidinylmethoxy)pyridine dihydrochloride]", "Ki": 0.6},
      {"smiles": "FC(F)(F)c1cncc(OC[C@@H]2CCCN2)c1", "note": "[Example 66, 3-(2-(S)-pyrrolidinylmethoxy)-5-trifluoromethylpyridine dihydrochloride]", "Ki": 4},
      {"smiles": "Brc1cncc(OC[C@@H]2CCN2)c1", "note": "[Example 67, 3-(2-(S)-azetidinylmethoxy)-5-bromopyridine dihydrochloride]", "Ki": 0.2},
      {"smiles": "CN1CC[C@H]1COc1cncc(Br)c1", "note": "[Example 68, 3-((1-methyl-2-(S)-azetidinyl)methoxy)-5-bromopyridine dihydrochloride]", "Ki": 4.5}
    ]},
    {"biological_target": "neuronal nicotinic cholinergic channel receptors", "assay": "[3H]-cytisine displacement binding to neuronal nicotinic cholinergic channel receptors", "assay_type": "rat (crude synaptic membranes from whole rat brain)", "conditions": "read-out: Receptor Binding Ki", "procedure": "as §1, §2", "units": {"Ki": "nM"}, "values": [
      {"smiles": "c1cncc(OC[C@H]2CCCN2)c1", "note": "[Example 2, 3-(2-(R)-pyrrolidinylmethoxy)pyridine dihydrochloride]", "Ki": 0.17},
      {"smiles": "CN1CCC[C@@H]1COc1ccc(Cl)nn1", "note": "[Example 5, oxalate]", "Ki": 87},
      {"smiles": "CC(Oc1cccnc1)[C@@H]1CCCN1C", "note": "(stereo partly drawn) [Example 6, 3-(a-methyl-(1-methyl-2-(S)-pyrrolidinyl)methoxy)pyridine hydrochloride]", "Ki": 6.7},
      {"smiles": "CN1CCC[C@H]1COc1ccc(Cl)nn1", "note": "[Example 12, 3-((1-methyl-2-(S)-pyrrolidinyl)methoxy-6-chloropyridazine fumarate]", "Ki": 29},
      {"smiles": "CN1CC[C@H]1COc1ccc(Cl)nn1", "note": "[Example 13, 6-chloro-3-((1-methyl-2(S)-azetidinyl)methoxy)pyridazine oxalate]", "Ki": 65},
      {"smiles": "Brc1ccncc1OC[C@@H]1CCCN1", "note": "[Example 20, 4-bromo-3-(2-(S)-pyrrolidinylmethoxy)pyridine dihydrochloride]", "Ki": 341},
      {"smiles": "CN1CCC[C@H]1COc1cnccc1Br", "note": "[Example 21, 4-bromo-3-((1-methyl-2-(S)-pyrrolidinyl)methoxy)pyridine dihydrochloride]", "Ki": 23},
      {"smiles": "C[C@H]1CC[C@@H](COc2cccnc2)N1C", "note": "[Example 22, 3-((cis-1,5-dimethyl-2-(S)-pyrrolidinyl)methoxy)pyridine dihydrochloride]", "Ki": 25},
      {"smiles": "CN1C[C@H](O)C[C@H]1COc1cccnc1", "note": "[Example 23, 3-((trans-1-methyl-4-hydroxy-2(S)-pyrrolidinyl)methoxy)pyridine dihydrochloride]", "Ki": 78.3},
      {"smiles": "C[C@@H]1C[C@@H](COc2cccnc2)N(C)C1", "note": "[Example 24, 3-((trans-1,4-dimethyl-2(S)-pyrrolidinyl)methoxy)pyridine dihydrochloride]", "Ki": 4.2},
      {"smiles": "CC[C@@H]1C[C@@H](COc2cccnc2)N(C)C1", "note": "[Example 25, 3-((trans-1-methyl-4-ethyl-2(S)-pyrrolidinyl)methoxy)pyridine dihydrochloride]", "Ki": 14.7},
      {"smiles": "CN1CCCCC1COc1cccnc1", "note": "(centres unmarked) [Example 26, 3-((1-methyl-2-piperidinyl)methoxy)pyridine oxalate salt]", "Ki": 76},
      {"smiles": "Cc1ccncc1OC[C@@H]1CCCN1", "note": "[Example 27, 4-methyl-3-(2-(S)-pyrrolidinylmethoxy)pyridine dihydrochloride]", "Ki": 5.8},
      {"smiles": "CN1CCC[C@H]1COc1cncc(Br)c1", "note": "[Example 28, 5-bromo-3-((1-methyl-2-(S)-pyrrolidinyl)methoxy)pyridine dihydrochloride]", "Ki": 0.23},
      {"smiles": "Cc1ncccc1OC[C@@H]1CCN1", "note": "[Example 29, 2-methyl-3-(2-(S)-azetidinylmethoxy)pyridine dihydrochloride]", "Ki": 1.3},
      {"smiles": "CN1CCC[C@H]1COc1cncc2ccccc12", "note": "[Example 32, 4-(1-methyl-2-(S)-pyrrolidinylmethoxy)isoquinoline hydrochloride]", "Ki": 110},
      {"smiles": "CN1CCC[C@@H]1COc1cncc(Cl)c1", "note": "[Example 34, 5-chloro-3-((1-methyl-2-(R)-pyrrolidinyl)methoxy)pyridine dihydrochloride]", "Ki": 11},
      {"smiles": "Cc1ccc(OC[C@H]2CCCN2C)cn1", "note": "[Example 36, 6-methyl-3-((1-methyl-2-(R)-pyrrolidinyl)methoxy)pyridine dihydrochloride]", "Ki": 26}
    ]}
  ]
}
